This is an account of results in PubChem BioAssay (NCI).

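Step 1: Grow cells in 96-well plates. Step 2: Expose to compound for 48 hours at 5 concentrations. Step 3: Interpolate endpoints linearly; if unreached, use highest concentration. Definition used: TGI = concentration required for complete inhibition of growth.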 Some results are limits rather than exact numbers.

Holding throughout (experiment): NCI tumour cell line growth inhibition, 48 h
Assay [1] deals with UO-31 renal.
The test system of assay [2] is MALME-3M melanoma.
Assay [3] concerns SF-268 CNS.
The test system of assay [4] is M14 melanoma.
Assay [5] concerns CCRF-CEM leukemia.
The subject of assay [6] is SK-MEL-5 melanoma.
Assay [7] concerns MCF7 breast.
Assay [8] concerns 786-0 renal.
The subject of assay [9] is T-47D breast.
The subject of assay [10] is OVCAR-8 ovarian.
Assay [11] concerns HS 578T breast.
Assay [12] has as its system RXF 393 renal.
The subject of assay [13] is KM12 colon.
In assay [14] the test system is UACC-257 melanoma.
Assay [15] deals with MDA-MB-435.

On to `CN(C)C(=S)/N=c1\ssc(=S)n1Cc1cccnc1`, for which the TGI in assay [1] was > 100 µM; in assay [2] it was > 100 µM; in assay [3] it was > 100 µM; in assay [4], 59.2 µM; in assay [5], > 86.1 µM; in [6], 37.8 µM. Besides, the TGI was > 100 µM in assay [7]; > 100 µM in assay [8]; > 100 µM in [9]; > 100 µM in assay [10]; > 100 µM in [11]; 17.8 µM in assay [12]. Moreover, the TGI is 36.2 µM in assay [13], > 95.5 µM in assay [14] and 1.57 µM in assay [15].
`Cc1cc2c(cc1Cl)S(=O)(=O)OC(c1ccc([N+](=O)[O-])cc1)=N2`: the TGI in [1], in assay [2], in assay [3], in [4], in assay [5] and in assay [6] was > 100 µM in each case. The TGI in [7], in assay [8], in [9], in [10], in [11] and in [12] was > 100 µM each time. The TGI in assay [13], in assay [14] and in assay [15] was > 100 µM in each case.
